According to ChEMBL document CHEMBL1201862, “PubChem BioAssay data set” (2004):
Calls of active or inactive are those of the source.

Tests used:
Cytochrome P450 2D6 = Cytochrome P450 2D6 (Homo sapiens, UniProt P10635);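 note: CYP2D6 member of a cytochrome P450 panel assay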
[1] = target: Ras and Rab interactor 1/Tyrosine-protein kinase ABL1 (Homo sapiens, UniProt P00519+Q13671); assay type: functional;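 note: biochemical TR-FRET dose-response test measuring inhibition of binding between Rin1 and Abl proteins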
Sequence of Ras and Rab interactor 1/Tyrosine-protein kinase ABL1 (P00519 whole entry): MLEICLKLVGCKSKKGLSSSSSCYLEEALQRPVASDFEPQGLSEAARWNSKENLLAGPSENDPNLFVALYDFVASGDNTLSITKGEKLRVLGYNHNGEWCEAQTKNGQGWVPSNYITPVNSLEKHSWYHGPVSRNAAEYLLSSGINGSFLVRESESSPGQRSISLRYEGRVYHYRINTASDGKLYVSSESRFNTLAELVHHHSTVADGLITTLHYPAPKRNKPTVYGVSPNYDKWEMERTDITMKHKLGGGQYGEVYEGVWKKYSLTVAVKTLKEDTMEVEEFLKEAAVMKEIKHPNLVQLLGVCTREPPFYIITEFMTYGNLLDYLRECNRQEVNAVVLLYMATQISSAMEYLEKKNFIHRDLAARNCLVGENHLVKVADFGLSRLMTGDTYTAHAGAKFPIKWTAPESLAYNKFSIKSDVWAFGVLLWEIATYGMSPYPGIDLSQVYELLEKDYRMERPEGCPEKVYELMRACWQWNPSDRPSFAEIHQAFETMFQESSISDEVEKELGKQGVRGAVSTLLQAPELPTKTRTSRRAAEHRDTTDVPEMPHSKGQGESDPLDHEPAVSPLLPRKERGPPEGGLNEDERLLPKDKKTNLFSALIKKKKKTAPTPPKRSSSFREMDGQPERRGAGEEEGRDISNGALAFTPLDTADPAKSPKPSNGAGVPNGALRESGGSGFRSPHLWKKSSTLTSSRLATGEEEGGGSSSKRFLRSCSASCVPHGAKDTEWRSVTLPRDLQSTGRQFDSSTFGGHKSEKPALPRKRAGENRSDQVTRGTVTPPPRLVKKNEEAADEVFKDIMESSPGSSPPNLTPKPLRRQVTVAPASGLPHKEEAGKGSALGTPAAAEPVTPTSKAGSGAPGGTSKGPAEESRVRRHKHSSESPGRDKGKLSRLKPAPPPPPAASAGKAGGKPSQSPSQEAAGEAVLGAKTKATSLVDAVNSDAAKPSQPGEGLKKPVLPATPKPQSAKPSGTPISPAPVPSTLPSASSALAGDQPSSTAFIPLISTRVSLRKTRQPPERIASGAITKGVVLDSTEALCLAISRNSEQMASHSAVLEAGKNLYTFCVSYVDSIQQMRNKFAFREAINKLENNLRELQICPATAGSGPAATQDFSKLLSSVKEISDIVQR
Sequence of Ras and Rab interactor 1/Tyrosine-protein kinase ABL1 (Q13671 whole entry): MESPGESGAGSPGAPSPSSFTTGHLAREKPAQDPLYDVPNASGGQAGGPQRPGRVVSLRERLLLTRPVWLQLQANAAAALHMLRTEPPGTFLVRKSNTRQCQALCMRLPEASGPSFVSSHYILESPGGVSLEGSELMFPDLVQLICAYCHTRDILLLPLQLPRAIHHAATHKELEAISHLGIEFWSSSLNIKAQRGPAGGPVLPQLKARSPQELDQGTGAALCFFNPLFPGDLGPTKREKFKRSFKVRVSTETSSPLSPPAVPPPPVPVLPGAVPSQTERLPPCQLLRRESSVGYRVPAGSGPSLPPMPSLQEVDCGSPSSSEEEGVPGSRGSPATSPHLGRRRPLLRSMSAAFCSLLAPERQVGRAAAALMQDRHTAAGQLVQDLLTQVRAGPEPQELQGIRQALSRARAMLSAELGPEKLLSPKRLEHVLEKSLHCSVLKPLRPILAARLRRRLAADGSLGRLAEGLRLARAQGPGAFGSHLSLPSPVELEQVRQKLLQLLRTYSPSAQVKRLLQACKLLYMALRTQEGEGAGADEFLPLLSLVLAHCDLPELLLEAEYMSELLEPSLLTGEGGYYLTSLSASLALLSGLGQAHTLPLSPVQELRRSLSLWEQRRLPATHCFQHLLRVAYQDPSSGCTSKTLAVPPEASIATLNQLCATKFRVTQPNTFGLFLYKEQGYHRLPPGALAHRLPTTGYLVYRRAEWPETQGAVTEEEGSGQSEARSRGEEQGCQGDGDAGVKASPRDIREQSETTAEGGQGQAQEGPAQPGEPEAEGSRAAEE

Cytochrome P450 2C9 = Cytochrome P450 2C9 (Homo sapiens, UniProt P11712)
Sequence of Cytochrome P450 2C9 (P11712 whole entry): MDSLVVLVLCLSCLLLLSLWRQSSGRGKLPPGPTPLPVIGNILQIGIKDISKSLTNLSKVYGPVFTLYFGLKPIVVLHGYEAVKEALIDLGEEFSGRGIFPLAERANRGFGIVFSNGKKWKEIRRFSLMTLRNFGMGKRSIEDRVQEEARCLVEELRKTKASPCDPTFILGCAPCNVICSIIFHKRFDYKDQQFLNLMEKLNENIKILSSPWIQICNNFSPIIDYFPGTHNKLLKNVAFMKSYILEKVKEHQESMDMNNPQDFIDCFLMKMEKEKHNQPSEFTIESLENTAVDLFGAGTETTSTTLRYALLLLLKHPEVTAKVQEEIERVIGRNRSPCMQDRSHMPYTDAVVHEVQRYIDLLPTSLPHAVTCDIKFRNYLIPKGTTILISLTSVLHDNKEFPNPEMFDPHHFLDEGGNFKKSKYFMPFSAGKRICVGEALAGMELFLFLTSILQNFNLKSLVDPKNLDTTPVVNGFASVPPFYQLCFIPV

Cytochrome P450 3A4 = Cytochrome P450 3A4 (Homo sapiens, UniProt P08684);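 note: CYP3A4 tested as one member of a cytochrome P450 panel screen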
[2] = target: T1, High affinity choline transporter 1 (Homo sapiens, UniProt Q9GZV3); test: human choline transporter blockers, potency – cell-based, 5-point CRC, membrane potential dye, dose response (AID 504840); assay type: functional
T1 sequence (Q9GZV3 whole entry): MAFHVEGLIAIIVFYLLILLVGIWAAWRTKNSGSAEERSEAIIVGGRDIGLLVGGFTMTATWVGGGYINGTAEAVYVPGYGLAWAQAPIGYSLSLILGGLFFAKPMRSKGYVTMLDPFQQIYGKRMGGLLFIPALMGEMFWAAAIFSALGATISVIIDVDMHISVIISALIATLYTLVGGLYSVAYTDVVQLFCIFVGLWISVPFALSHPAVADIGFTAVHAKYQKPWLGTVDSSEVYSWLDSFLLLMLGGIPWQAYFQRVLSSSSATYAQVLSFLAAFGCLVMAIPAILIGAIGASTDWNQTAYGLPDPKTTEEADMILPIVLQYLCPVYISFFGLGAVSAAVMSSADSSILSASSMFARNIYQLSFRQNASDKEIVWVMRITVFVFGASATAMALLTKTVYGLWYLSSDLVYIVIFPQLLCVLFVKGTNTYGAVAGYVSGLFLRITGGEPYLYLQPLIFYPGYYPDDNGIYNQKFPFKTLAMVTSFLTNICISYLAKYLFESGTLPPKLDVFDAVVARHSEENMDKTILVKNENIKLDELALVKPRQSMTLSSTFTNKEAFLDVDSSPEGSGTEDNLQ

[3] = target: T1, High affinity choline transporter 1; test: human choline transporter blockers, potency – cell-based, 10-point CRC, membrane potential dye, dose response (AID 588401); assay type: functional;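 note: membrane potential dye fluorescence of choline-evoked depolarization via CHT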
[4] = target: Mitogen-activated protein kinase 10 (Homo sapiens, UniProt P53779); test: Dose response biochemical screening assay for inhibitors of c-Jun N-Terminal Kinase 3 (JNK3). [Related pubchem assays: 746 ]
Sequence of Mitogen-activated protein kinase 10 (P53779 whole entry): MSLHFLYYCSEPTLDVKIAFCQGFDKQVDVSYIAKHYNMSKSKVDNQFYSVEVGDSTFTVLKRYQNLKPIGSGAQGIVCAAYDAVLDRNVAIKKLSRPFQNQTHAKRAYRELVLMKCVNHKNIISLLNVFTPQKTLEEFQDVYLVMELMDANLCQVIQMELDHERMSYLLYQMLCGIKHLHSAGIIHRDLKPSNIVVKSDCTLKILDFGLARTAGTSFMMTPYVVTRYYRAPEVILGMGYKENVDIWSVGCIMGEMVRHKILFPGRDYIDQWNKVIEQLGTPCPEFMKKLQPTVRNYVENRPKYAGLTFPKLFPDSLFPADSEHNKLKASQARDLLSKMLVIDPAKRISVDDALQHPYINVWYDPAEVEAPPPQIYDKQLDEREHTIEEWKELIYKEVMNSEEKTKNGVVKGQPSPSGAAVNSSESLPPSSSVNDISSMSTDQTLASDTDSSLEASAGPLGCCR

Streptococcus = test: GAS UMAA2166 growth inhibition – luminescence, BacTiterGlo, counter-screen for streptokinase expression inhibitor project, dose response (AID 1915); assay type: functional, organism-based;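 note: potency for reduction of bacterial viability or growth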
HEK293 [5] = test: optical interference in Abeta FP readout, dose response, artefact control for IDE activator project, biochemical, fluorescence polarization (AID 588442); assay type: functional, cell-based; settings: Homo sapiens
[6] = target: G-protein coupled receptor 55 (Homo sapiens, UniProt Q9Y2T6); test: selective activators of receptor GPR55 – imaging, U2OS cells, beta-arrestin-GFP redistribution, primary screen (AID 1961); assay type: functional
Sequence of G-protein coupled receptor 55 (Q9Y2T6 whole entry): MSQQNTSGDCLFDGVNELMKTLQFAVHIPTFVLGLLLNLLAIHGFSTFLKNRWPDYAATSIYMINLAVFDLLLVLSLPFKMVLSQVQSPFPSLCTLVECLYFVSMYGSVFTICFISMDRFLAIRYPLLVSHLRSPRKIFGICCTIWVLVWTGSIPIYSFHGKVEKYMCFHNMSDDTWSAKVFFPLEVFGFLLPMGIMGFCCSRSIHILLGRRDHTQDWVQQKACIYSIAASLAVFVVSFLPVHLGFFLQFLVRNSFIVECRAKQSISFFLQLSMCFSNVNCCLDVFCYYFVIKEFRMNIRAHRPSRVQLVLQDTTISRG

HEK293 [7] = test: membrane integrity loss in HEK cells – cell-based, fluorescence, cytotoxicity control for IDE activator project, dose response (AID 588440); assay type: functional; settings: Homo sapiens;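 note: cytotoxicity by LDH release measuring loss of membrane integrity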
Streptokinase A = target: T2, Streptokinase A (Streptococcus pyogenes serotype M1, UniProt P10520); test: viability-normalized secreted streptokinase activity reduction – plasminogen activation absorbance, OD405, dose response (AID 1914); assay type: functional, Streptococcus pyogenes M1 GAS;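 note: secreted streptokinase activity via plasminogen activation per viability signal from cell pellet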
T2 sequence (P10520 whole entry): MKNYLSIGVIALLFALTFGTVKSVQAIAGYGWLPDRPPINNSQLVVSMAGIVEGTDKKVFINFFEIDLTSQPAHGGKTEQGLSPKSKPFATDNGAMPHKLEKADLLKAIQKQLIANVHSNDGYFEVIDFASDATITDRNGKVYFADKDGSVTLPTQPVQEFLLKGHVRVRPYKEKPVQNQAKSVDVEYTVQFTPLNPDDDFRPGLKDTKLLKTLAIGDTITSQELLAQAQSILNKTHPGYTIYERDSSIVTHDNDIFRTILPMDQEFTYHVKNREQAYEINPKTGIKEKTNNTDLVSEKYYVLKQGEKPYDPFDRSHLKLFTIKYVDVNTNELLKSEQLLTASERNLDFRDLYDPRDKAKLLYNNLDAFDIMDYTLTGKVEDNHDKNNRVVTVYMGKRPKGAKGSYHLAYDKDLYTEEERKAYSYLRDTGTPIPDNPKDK

Insulin-degrading enzyme [8] = target: T3, Insulin-degrading enzyme (Homo sapiens, UniProt P14735); test: cellular IDE activation of Abeta substrate cleavage – fluorescence polarization, HEK cells, dose response (AID 588439); assay type: functional, cell-based
T3 sequence (P14735 whole entry): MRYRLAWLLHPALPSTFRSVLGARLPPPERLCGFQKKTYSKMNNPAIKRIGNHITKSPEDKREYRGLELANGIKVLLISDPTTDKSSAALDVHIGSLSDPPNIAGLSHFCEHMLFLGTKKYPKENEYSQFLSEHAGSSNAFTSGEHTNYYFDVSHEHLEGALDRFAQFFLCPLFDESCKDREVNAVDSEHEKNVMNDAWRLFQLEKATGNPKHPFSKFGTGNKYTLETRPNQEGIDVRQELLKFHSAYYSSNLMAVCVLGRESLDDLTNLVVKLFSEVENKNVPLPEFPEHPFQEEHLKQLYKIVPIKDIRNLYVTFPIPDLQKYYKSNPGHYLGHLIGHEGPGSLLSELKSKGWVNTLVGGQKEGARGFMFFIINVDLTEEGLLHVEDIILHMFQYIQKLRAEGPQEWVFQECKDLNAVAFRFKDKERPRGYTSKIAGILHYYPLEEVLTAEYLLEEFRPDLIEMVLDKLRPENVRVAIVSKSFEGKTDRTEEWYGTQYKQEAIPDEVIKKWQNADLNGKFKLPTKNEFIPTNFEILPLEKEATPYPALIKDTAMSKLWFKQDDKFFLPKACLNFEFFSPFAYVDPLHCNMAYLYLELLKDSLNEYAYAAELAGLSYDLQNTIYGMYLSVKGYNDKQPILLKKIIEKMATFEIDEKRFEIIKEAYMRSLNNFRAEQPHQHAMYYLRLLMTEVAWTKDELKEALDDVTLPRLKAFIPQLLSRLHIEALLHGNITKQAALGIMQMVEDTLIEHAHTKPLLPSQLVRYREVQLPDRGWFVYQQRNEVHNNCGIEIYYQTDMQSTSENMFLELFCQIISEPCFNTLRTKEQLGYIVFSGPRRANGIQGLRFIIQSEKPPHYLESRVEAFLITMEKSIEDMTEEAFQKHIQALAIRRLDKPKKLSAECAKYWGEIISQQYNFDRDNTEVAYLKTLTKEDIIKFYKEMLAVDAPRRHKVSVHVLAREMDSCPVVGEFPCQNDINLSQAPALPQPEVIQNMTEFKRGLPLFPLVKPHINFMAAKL

[9] = Luminescence Cell-Based Dose Retest to Confirm Inhibitors of Cancer Stem Cells. [Related pubchem assays (depositor defined):AID2717, AID2721]; assay type: functional; settings: Homo sapiens
Insulin-degrading enzyme [10] = target: T3, Insulin-degrading enzyme; test: recombinant IDE activation, cell-free – biochemical, fluorescence polarization, counter-screen for IDE activator project, dose response (AID 588681)
[11] = test system: Streptococcus sp. 'group A'; test: Streptococcus pyogenes SK(-)GAS viability under kanamycin – luminescence, BacTiterGlo, confirmation, counter-screen for streptokinase expression inhibitor project, dose response (AID 1900); assay type: functional, organism-based
[12] = target: Disintegrin and metalloproteinase domain-containing protein 17 (Homo sapiens, UniProt P78536); test: inhibition of ADAM17 substrate cleavage – biochemical, quenched FRET substrate, counter-screen for ADAM10 exosite inhibitor project, dose response (AID 743253)
Sequence of Disintegrin and metalloproteinase domain-containing protein 17 (P78536 whole entry, the tested form may be a part): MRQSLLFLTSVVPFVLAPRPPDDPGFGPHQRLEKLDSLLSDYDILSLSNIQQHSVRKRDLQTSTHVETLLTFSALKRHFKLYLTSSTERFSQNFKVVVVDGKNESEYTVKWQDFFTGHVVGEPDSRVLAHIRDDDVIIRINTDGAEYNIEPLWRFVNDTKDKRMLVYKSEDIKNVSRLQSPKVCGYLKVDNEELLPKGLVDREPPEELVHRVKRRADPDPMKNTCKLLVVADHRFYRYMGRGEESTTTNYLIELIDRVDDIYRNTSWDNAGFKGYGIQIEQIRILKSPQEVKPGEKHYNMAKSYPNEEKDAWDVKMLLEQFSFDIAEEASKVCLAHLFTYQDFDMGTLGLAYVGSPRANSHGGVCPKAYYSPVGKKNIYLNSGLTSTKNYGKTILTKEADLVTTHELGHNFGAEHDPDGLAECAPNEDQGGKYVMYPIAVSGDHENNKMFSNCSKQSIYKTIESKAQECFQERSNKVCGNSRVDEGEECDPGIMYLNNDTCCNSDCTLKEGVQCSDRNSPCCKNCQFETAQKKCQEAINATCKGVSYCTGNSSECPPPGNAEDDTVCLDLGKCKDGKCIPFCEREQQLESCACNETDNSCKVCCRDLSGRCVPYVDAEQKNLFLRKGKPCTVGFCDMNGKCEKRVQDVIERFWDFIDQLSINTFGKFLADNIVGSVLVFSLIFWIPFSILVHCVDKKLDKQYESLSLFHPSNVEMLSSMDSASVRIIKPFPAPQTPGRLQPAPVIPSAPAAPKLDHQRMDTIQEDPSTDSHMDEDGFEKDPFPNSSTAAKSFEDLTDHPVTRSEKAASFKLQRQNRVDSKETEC

cells = assay type: functional
[13] = target: T4, Rac GTPase-activating protein 1 (Homo sapiens, UniProt Q9H0H5); test: blockers of MgcRacGAP-driven Rac1 GTP hydrolysis – biochemical, ADP Hunter fluorescence, primary and confirmatory, confirmation (AID 624330); assay type: functional
T4 sequence (Q9H0H5 whole entry): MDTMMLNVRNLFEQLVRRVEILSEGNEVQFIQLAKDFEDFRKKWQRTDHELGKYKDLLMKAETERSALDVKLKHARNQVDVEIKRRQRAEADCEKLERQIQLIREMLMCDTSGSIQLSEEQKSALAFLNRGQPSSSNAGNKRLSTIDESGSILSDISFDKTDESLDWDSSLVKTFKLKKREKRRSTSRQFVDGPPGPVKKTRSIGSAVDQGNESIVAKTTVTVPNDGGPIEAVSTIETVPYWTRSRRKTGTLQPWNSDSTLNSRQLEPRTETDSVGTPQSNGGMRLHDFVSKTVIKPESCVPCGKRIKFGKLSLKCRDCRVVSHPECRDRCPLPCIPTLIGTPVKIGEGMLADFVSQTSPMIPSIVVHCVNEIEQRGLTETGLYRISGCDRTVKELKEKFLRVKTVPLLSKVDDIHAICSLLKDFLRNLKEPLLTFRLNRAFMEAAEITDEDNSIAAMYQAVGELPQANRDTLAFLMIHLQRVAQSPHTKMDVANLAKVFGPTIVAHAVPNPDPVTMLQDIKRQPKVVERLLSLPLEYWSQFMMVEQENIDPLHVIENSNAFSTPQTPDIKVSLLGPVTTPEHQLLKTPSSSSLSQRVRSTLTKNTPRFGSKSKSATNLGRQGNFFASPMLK

Large T antigen = Large T antigen (Simian virus 40, UniProt P03070); assay type: functional, Betapolyomavirus macacae;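 note: Confirmatory-stage PubChem screen for compounds that inhibit SV40 T antigen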
Sequence of Large T antigen (P03070 whole entry): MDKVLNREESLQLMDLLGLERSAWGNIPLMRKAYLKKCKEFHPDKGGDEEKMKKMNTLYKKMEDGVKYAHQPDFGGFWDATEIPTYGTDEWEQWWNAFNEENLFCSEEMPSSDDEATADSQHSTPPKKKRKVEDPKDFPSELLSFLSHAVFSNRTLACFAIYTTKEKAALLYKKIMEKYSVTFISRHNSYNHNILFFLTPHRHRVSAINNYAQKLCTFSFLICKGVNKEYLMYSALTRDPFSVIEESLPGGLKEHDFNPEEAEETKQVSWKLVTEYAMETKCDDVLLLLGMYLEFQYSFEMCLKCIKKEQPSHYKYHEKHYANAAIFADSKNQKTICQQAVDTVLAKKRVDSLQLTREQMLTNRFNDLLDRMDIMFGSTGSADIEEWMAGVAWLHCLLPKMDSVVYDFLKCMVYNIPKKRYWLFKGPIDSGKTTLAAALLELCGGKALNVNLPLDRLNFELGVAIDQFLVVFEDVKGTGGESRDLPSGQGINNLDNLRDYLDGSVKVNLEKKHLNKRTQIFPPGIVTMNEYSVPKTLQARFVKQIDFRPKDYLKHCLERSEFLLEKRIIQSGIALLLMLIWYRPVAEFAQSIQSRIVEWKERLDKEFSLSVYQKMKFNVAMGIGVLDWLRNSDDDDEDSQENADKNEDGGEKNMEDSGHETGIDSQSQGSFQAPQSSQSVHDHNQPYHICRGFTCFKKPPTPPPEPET

Q: For COCCNC(=O)c1cc2c3ccccc3n(C)c2s1, which AC50 (Cytochrome P450 2D6) is on record?
A: Its AC50 is “inconclusive”.

Q: And the IC50 [1]?
A: Its IC50 is 14.6 µM (inactive).

Q: And the AC50 (Cytochrome P450 2C9)?
A: Its AC50 is “inconclusive”.

Q: And the AC50 (Cytochrome P450 3A4)?
A: The AC50 was 28.2 µM (inconclusive).

Q: Which IC50 [2] does the source give for Cc1cc(NS(=O)(=O)c2ccc(NC(=O)C(C)Oc3cccc(C)c3C)cc2)nc(C)n1 (stereo unspecified) here?
A: Its IC50 is 10 µM (active).

Q: What about the IC50 [3] of the same compound?
A: The IC50 was 7.23 µM (active).

Q: Which results are given for O=C(Nc1cccnc1)c1ccc(COc2ccccc2Br)o1?
A: IC50 [4]: > 93.1 µM (not active); IC50 [2]: 3.28 µM (active); IC50 [3]: 1.5 µM (active)

Q: With C=C(C)COc1ccc(-c2n[nH]cc2Oc2ccc(OC)cc2)c(O)c1 as the compound, how does the EC50 (Streptococcus) read?
A: Its EC50 is 25.8 µM (active).

Q: And the EC50 (HEK293 [5])?
A: The EC50 was > 54.7 µM (inactive).

Q: And the EC50 [6]?
A: Its EC50 is > 32 µM (inactive).

Q: What about the IC50 (HEK293 [7]) of the same compound?
A: The IC50 was 31.4 µM (inactive).

Q: And the EC50 (Streptokinase A)?
A: The EC50 was 37.4 µM (active).

Q: What about the EC50 (Insulin-degrading enzyme [8]) of the same compound?
A: The EC50 was 20.7 µM (inactive).

Q: What about the AC50 [9] of the same compound?
A: Its AC50 is 5.47 µM (active).

Q: And the EC50 (Insulin-degrading enzyme [10])?
A: The EC50 was > 54.7 µM (inactive).

Q: And the EC50 [11]?
A: Its EC50 is 6.87 µM (active).

Q: What about the IC50 [12] of the same compound?
A: Its IC50 is 12 µM (inactive).

Q: With C/C(CC(=O)Nc1ccc(N(C)C)cc1)=N\NC(=O)c1ccncc1 as the compound, how does the EC50 (HEK293 [5]) read?
A: The EC50 was > 55.9 µM (inactive).

Q: What about the IC50 (cells) of the same compound?
A: The IC50 was 0.31 µM (active).

Q: What about the IC50 (HEK293 [7]) of the same compound?
A: The IC50 was > 89.2 µM (inactive).

Q: And the EC50 (Insulin-degrading enzyme [8])?
A: Its EC50 is > 54.7 µM (inactive).

Q: And the IC50 [13]?
A: Its IC50 is 56.8 µM (active).

Q: What about the IC50 (Large T antigen) of the same compound?
A: Its IC50 is 13.7 µM (active).

Q: And the EC50 (Insulin-degrading enzyme [10])?
A: Its EC50 is 26 µM (inactive).
